In paper PMC6563031, “Polyketides from the Mangrove-Derived Endophytic Fungus Cladosporium cladosporioides” (Marine Drugs, 2019):
≈ marks a conversion by molar mass, not a printed value. Like-named read-outs stand apart in the source and are kept apart here.

What was measured:
E. tarda QDIO-2 = assay: Antimicrobial 96-well microtiter plate assay, E. tarda; format: cell-based, Edwardsiella tarda
[1] = tested on: Edwardsiella ictarda QDIO-9; assay: Antimicrobial 96-well microtiter plate assay, E. ictarda; format: cell-based; conditions: chloramphenicol as positive control
[2] = tested on: F. oxysporum f. sp. cucumerinum QDAU-8; assay: Antimicrobial 96-well microtiter plate assay, F. oxysporum f. sp. cucumerinum; format: cell-based, Fusarium oxysporum f. sp. cucumerinum; conditions: amphotericin B as positive control
Escherichia coli EMBLC-1 = assay: Antimicrobial 96-well microtiter plate assay, E. coli; format: cell-based
[3] = tested on: Bipolaris sorokiniana QDAU-5; assay: Antimicrobial 96-well microtiter plate assay, B. sorokiniana; format: cell-based
[4] = tested on: Staphylococcus aureus EMBLC-2; assay: Antimicrobial 96-well microtiter plate assay, S. aureus; format: cell-based
[5] = tested on: Pseudomonas aeruginosa QDIO-4; assay: Antimicrobial 96-well microtiter plate assay, P. aeruginosa; format: cell-based; conditions: amphotericin B as positive control (as footnoted)
[6] = tested on: Glomerella cingulate QDAU-12; assay: Antimicrobial 96-well microtiter plate assay, G. cingulate; format: cell-based; conditions: amphotericin B as positive control
[7] = chloramphenicol as positive control
[8] = Edwardsiella tarda, QDIO2, chloramphenicol as positive control, read-out: MIC
[9] = Edwardsiella, QDIO9, E. ictarda, read-out: MIC
[10] = Fusarium oxysporum, read-out: MIC
[11] = Escherichia coli, EMBLC1, chloramphenicol as positive control, read-out: MIC
[12] = Bipolaris sorokiniana, QDAU5, amphotericin B as positive control, read-out: MIC
[13] = Staphylococcus aureus, EMBLC2, chloramphenicol as positive control, read-out: MIC
[14] = Pseudomonas aeruginosa, QDIO4, P. aeruginosa, read-out: MIC

Row | SMILES | MIC (E. tarda QDIO-2; [7]) | MIC ([1]; E. ictarda) | MIC [2] | MIC (Escherichia coli EMBLC-1; [7]) | MIC ([3]; amphotericin B as positive control) | MIC [4, 7] | MIC ([5]; P. aeruginosa) | MIC [6] | MIC (E. tarda QDIO-2; [8]) | MIC [1, 9] | MIC [2, 10] | MIC (Escherichia coli EMBLC-1; [11]) | MIC [3, 12] | MIC [4, 13] | MIC [5, 14] | MIC ([6]; read-out: MIC)
1 | CC1CC=CCCC(O)CCCC(=O)O1 (stereo not drawn) [Compound 2, 5S-hydroxyrecifeiolide] | – ((–) = MIC > 64 μg/mL) | – ((–) = MIC > 64 μg/mL) | – ((–) = MIC > 64 μg/mL) | – ((–) = MIC > 64 μg/mL) | – ((–) = MIC > 64 μg/mL) | – ((–) = MIC > 64 μg/mL) | – ((–) = MIC > 64 μg/mL) | 16 µg/mL (≈ 75.4 µM) | – | – | – | – | – | – | – | –
2 | CC(=O)OC(C)CCCCCCC1OC(=O)CC1O (centres unmarked) [Compound 4, cladospolide G] | – | – | – | – | – | – | – | – | > 64 µg/mL | > 64 µg/mL | 1 µg/mL (≈ 3.67 µM) | 32 µg/mL (≈ 117 µM) | 32 µg/mL (≈ 117 µM) | > 64 µg/mL | > 64 µg/mL | 1 µg/mL (≈ 3.67 µM)
3 | CC1CC=CCCC(O)CCCC(=O)O1 (stereo not drawn) [Compound 1, 5R-hydroxyrecifeiolide] | – | – | – | – | – | – | – | – ((–) = MIC > 64 μg/mL) | > 64 µg/mL | 32 µg/mL (≈ 151 µM) | > 64 µg/mL | > 64 µg/mL | > 64 µg/mL | > 64 µg/mL | 32 µg/mL (≈ 151 µM) | –
4 | C[C@H]1CCCCC[C@H](O)C(=O)[C@H](O)CC(=O)O1 [Compound 7, pandangolide 1] | – | – | – | – | – | – | – | – | > 64 µg/mL | 4 µg/mL (≈ 16.4 µM) | > 64 µg/mL | > 64 µg/mL | > 64 µg/mL | 32 µg/mL (≈ 131 µM) | 32 µg/mL (≈ 131 µM) | 1 µg/mL (≈ 4.09 µM)
5 | C[C@@H]1[C@H](O)[C@@H](C)/C=C/C=C/C=C/C=C/C=C/C=C/C=C/[C@H](O[C@@H]2O[C@H](C)[C@@H](O)[C@H](N)[C@@H]2O)C[C@@H]2O[C@](O)(C[C@@H](O)C[C@@H](O)[C@H](O)CC[C@@H](O)C[C@@H](O)CC(=O)O[C@H]1C)C[C@H](O)[C@H]2C(=O)O [Amphotericin B, reference compound] | – | – | – | – | – | – | – | – | – | – | 0.5 µg/mL (≈ 0.541 µM) | – | 0.5 µg/mL (≈ 0.541 µM) | – | 2 µg/mL (≈ 2.16 µM) | 0.5 µg/mL (≈ 0.541 µM)
6 | O=C(N[C@H](CO)[C@H](O)c1ccc([N+](=O)[O-])cc1)C(Cl)Cl [Chloramphenicol, reference compound] | – | – | – | – | – | – | – | – | 0.5 µg/mL (≈ 1.55 µM) | 0.5 µg/mL (≈ 1.55 µM) | – | 2 µg/mL (≈ 6.19 µM) | – | 1 µg/mL (≈ 3.09 µM) | – | –
7 | CC(O)CCCCCC(O)C1C=CC(=O)O1 (centres unmarked) [Compound 6, iso-cladospolide B] | – | – | – | – | – | – | – | – | 32 µg/mL (≈ 140 µM) | 16 µg/mL (≈ 70.1 µM) | > 64 µg/mL | 32 µg/mL (≈ 140 µM) | > 64 µg/mL | > 64 µg/mL | > 64 µg/mL | 64 µg/mL (≈ 280 µM)
8 | CC(O)CCCCCCC1OC(=O)CC1O (stereo not drawn) [Compound 3, ent-cladospolide F] | – | – | – | – | – | – | – | – | > 64 µg/mL | 16 µg/mL (≈ 69.5 µM) | > 64 µg/mL | > 64 µg/mL | > 64 µg/mL | 8 µg/mL (≈ 34.7 µM) | 64 µg/mL (≈ 278 µM) | > 64 µg/mL
